This is an account of results in patent publication US20130324555A1, “Method of use of pharmaceutical formulations for the treatment of apicomplexan diseases in animals” (priority 2012, published 2013).

Converted amounts (≈) assume the structure as drawn. Some results are limits rather than exact numbers.

Data set [1] relates to T. gondii tachyzoites. Description: In vitro inhibition of T. gondii tachyzoites (RH-YFP fluorescence / [3H]-uracil incorporation). Particulars: for MIC50 / MIC90: Toxoplasma gondii, T. gondii tachyzoites in HFF cells; for activity against T. gondii tachyzoites, in words: only MIC50≦1 μM considered active. Type of data set: cell-based. As to the method:
Determination of the anti-apicomplexan activity of Compounds of Formula I may be determined by one skilled in the art. Parasite proliferation was monitored by using stably transfected type I RH-YFP parasites, which constitutively express Yellow Florescent Protein. Proliferation also was tested using a [^3H]-Uracil incorporation assay, as Uracil is incorporated into nucleic acids of T. gondii tachyzoites, but not mammalian cells, as they divide. Complimentary challenge assays ensured that the observed fluorescence data was due to parasite inhibition and not to quenched fluorescence. Pyrimethamine and sulfadiazine were used as positive controls, and DMSO at a concentration of 0.1% was used as the negative control. Because T. gondii is an obligate parasite, compounds that are toxic to host cells will appear to inhibit parasite growth. Therefore, all test compounds were simultaneously evaluated for efficacy and toxicity against human cells.
Test compounds were dissolved in DMSO to make a 10 mM solution, and subsequently diluted with IMDM-C to the concentrations used in bioassay. In the in vitro experiments DMSO concentration was not greater than 0.1% unless otherwise specified. RH-YFP parasites, which stably express Yellow Florescent Protein, were used. Tachyzoites were extracted from HFF cells by double passage through a 25-gauge needle, centrifuged for 15 minutes at 1500 RPM, and resuspended in IMDM-C. Confluent monolayers of HFF cells were infected with parasites in 96-well plates (Falcon 96 Optilux Flat-bottom) with 3,500 parasites in 100 uL per well. One hour after inoculation, test compounds and control media were added for a final volume of 200 uL per well. Parasite proliferation was assessed using [^3H]-Uracil incorporation or YFP Fluorescence assay.
Human Foreskin Fibroblast (HFF) cells were maintained in confluent monolayers in Iscoves's Modified Dulbecco's Medium supplemented with 10% fetal bovine serum, 1% GlutaMAX and 1% penicillin-streptomycin-fungizone (IMDM-C). T. gondii tachyzoites were cultivated in HFF monolayers. Parasites and cells were maintained at 33° C. or 37° C. and 5% CO2. The strains of parasite used in this study include RH, RH-YFP, and Prugnaud FLUC (Type 2 parasites stably transfected with luciferase), Me49 strain, and TgGoatUS4 isolate.
25 μL of 0.1 mCi/mL*^3H]-Uracil or [^3H]-Thymidine was added to each well 24 hours before reading plates. At harvesting, contents of the wells were transferred onto a 96-well UniFilter GF/C filter plates using a Filtermate 196 cell harvester (Packard). [^3H]-Uracil and [^3H]-Thymidine incorporation was measured using a Microplate Scintillation Luminescence Counter (Packard).
72 hours after initiation of the in vitro challenge assay, parasite proliferation was assessed by reading fluorescence of YFP parasites with a Synergy H4 Hybrid Reader (BioTek) and Gen5 1.10 software, using a bottom optics positions, excitation wavelength of 514 nm, and emission wavelength of 540 nm.

A short description of data set [2]: Hydrolytic stability of acylated derivatives (data not shown). Type of data set: physicochemical. As to the method: A cursory study of the effect of capping the phenol of 4 via acylation was undertaken. The acylated derivatives 7 were prepared and tested. […] The intrinsic activity of intact 7a cannot yet be ruled out, and this interesting phenomenon is currently under study.

For data set [3], the system named is P. falciparum D6 (CDC/Sierra Leone). Briefly: Malaria SYBR Green 1-Based Fluorescence (MSF) Assay, strain D6. It counts as cell-based. Particulars: Plasmodium falciparum, D6, read-out: D6 IC50. How it is done:
Compound activity against P. falciparum, the causative agent of malaria, was assessed using the Malaria SYBR Green 1-Based Fluorescence (MSF) Assay. This microtiter plate drug sensitivity assay uses the presence of malarial DNA as a measure of parasitic proliferation. The assay is a microtiter plate drug sensitivity assay that uses the presence of malarial DNA as a measure of parasitic proliferation in the presence of antimalarial drugs or experimental compounds based on modifications of previously described methods (Plouffe et al., Proc Natl Acad Sci USA. 2008, 105, 9059-9064), (Johnson et al., Antimicrob. Agents Chemother. 2005, 49, 3463-3467).
Selected compounds were examined for activity against two strains of P. falciparum: D6 (CDC/Sierra Leone), a drug-sensitive and readily killed by chloroquine, and TM90-C235, a multi-drug resistant strain resistant to chloroquine.
D6 (CDC/Sierra Leone) and TM90-C235 (WRAIR, Thailand) laboratory strains of P. falciparum were used for each drug sensitivity assessment. The parasite strains were maintained continuously in long-term cultures as previously described in Johnson et al, and P. falciparum strains in late-ring or early-trophozoite stages were cultured in predosed 384-well microtiter drug assay plates in 38 μl culture volume per well at a starting parasitemia of 0.3% and a hematocrit of 2%. Pre-dosed, sterile, 384 well black optical bottom microtiter drug plates for use in the MSF assay were produced using a Tecan EVO Freedom Liquid Handling System (Tecan US, Durham, N.C.). Dose response plates were produced at a final concentration ranging from 0.5-10000 ng/ml in quadruplicate (twelve two-fold serial dilutions of each test compound or chloroquine control in DMSO. Each run was validated by a batch control plate with chloroquine (Sigma-Aldrich Co., Catalog #C6628) at a final concentration of 2000 ng/ml. The cultures were incubated for 72 hours at 37° C., 5% CO2, 5% O2 and 90% N2. Lysis buffer (38 μl per well), consisting of 20 mM Tris HCl, 5 mM EDTA, 1.6% Triton X, 0.016% saponin, and SYBR green I dye at a 20× concentration (Invitrogen, Catalog #S-7567) was then added to the assay plates utilizing the Tecan EVO Freedom system for a final SYBR Green concentration of 10×. Plates were incubated in the dark at room temperature in the dark for 24 hours.
Compound activity was assessed by examining for the relative fluorescence units (RFU) per well using the Tecan Genios Plus (Tecan US, Inc., Durham, N.C.). GraphPad Prism (GraphPad Software Inc., San Diego, Calif.) using the nonlinear regression (sigmoidal dose-response/variable slope) equation was used to determine IC50 values.

What is called MIC50 is the lowest concentration that inhibits either 50% of growth or 50% of the strains tested, depending on the study. What is called MIC90 is the lowest concentration that inhibits either 90% of growth or 90% of the strains tested, depending on the study. As to `CC(C)Oc1cccc(NC(=O)c2cc(Cl)ccc2O)c1` [Compound 3w], in data set [1], the MIC50 was more than 1 µM and the MIC90 was more than 1 µM.
As to `COc1cccc(NC(=O)c2cc(F)ccc2O)c1` [Compound 10b], in data set [1], the MIC50 was more than 1 µM; the MIC90 is more than 1 µM; the “activity against T. gondii tachyzoites, in words” value (“activity” for short) is “inactive”.
For `CCOc1cccc(NC(=O)c2cc(F)ccc2O)c1` [Compound 3ac], in data set [1], the MIC50 is more than 1 µM; the MIC90 was more than 1 µM; the “activity” value is “no activity”.
Consider `O=C(Nc1cccc(Cl)c1)c1cc(I)cc(I)c1O` [Compound 3aa], for which, in data set [1], the MIC50 is more than 1 µM; the MIC90 is more than 1 µM; the “activity” value was “no activity”.
In the case of `O=C(Nc1ccc2c(c1)OCCO2)c1cc(Cl)ccc1O` [Compound 3ab], in data set [1], the MIC50 is more than 1 µM; the MIC90 was more than 1 µM; the “activity” value is “devoid of activity”.
For `O=C(Nc1ccc(Cl)cc1F)c1cc(Cl)ccc1O` [Compound 3p, 5-chloro-N-(4-chloro-2-fluorophenyl)-2-hydroxybenzamide], in data set [1], the “activity” value was “removed all activity”.
Consider `Cc1cccc(NC(=O)c2cc(Cl)ccc2O)c1` [Compound 3a], for which, in data set [1], the MIC50 was more than 1 µM and the MIC90 was more than 1 µM.
For `O=C(Nc1cccc(OC(F)F)c1)c1cc(Cl)ccc1O` [Compound 3z], in data set [1], the MIC50 is more than 1 µM and the MIC90 was more than 1 µM.
As for `N#Cc1cccc(NC(=O)c2cc(Cl)ccc2O)c1` [Compound 3g], in data set [1], the MIC50 was more than 1 µM and the MIC90 was more than 1 µM.
With `O=C(Nc1ccc([N+](=O)[O-])cc1Cl)c1cc(Cl)ccc1OC(=O)N1CCOCC1` [Compound 7c], in data set [1], the MIC50 was more than 1 µM; the MIC90 was more than 1 µM; the “activity” value is given as “devoid of activity”. Moreover, the stability against hydrolysis entry in data set [2] is given as “much more stable against hydrolysis”.
With `O=C(Nc1ccc([N+](=O)[O-])cc1Cl)c1ccccc1O` [Compound 3k], in data set [1], the MIC50 is more than 1 µM; the MIC90 was more than 1 µM; the “activity” value is “eliminated activity altogether”.
For the compound `O=C(Nc1cccc(Oc2ccccc2)c1)c1cc(Cl)ccc1O` [Compound 3y], in data set [1], the MIC50 is more than 1 µM and the MIC90 is more than 1 µM.
Broadly, the IC50 is the concentration that inhibits the measured activity by half. Regarding `CCN(CC)CCCC(C)Nc1ccnc2cc(Cl)ccc12` (stereo not drawn) [Chloroquine, reference compound], the IC50 in data set [3] stood at 3.8 ng/mL (≈ 0.0119 µM).
For `COc1ccc(NC(=O)c2cc(Cl)ccc2O)c(OC)c1OC` [Compound 3q], in data set [1], the MIC50 is more than 1 µM; the MIC90 is more than 1 µM; the “activity” value is listed as “devoid of activity”.
Take `COc1ccc(NC(=O)c2cc(Cl)ccc2O)cc1OC` [Compound 3v]: in data set [1], the MIC50 is more than 1 µM; the MIC90 was more than 1 µM; the “activity” value is “devoid of activity”.
With `CCOc1cccc(NC(=O)c2cc(Cl)ccc2O)c1` [Compound 3u], in data set [1], the MIC50 was more than 1 µM and the MIC90 is more than 1 µM.
As to `COc1cc(C)cc(NC(=O)c2cc(Cl)ccc2O)c1` [Compound 3x], in data set [1], the MIC50 was more than 1 µM and the MIC90 is more than 1 µM.
With `C#Cc1cc(NC(=O)c2cc(Cl)ccc2O)ccc1F` [Compound 3t], in data set [1], the MIC50 is more than 1 µM; the MIC90 is more than 1 µM; the “activity” value was “inactive”.
Regarding `O=C(Nc1cc(F)cc(F)c1)c1cc(Cl)ccc1O` [Compound 3o], in data set [1], the MIC50 is more than 1 µM; the MIC90 is more than 1 µM; the “activity” value is “inactive”.
Regarding `COC(=O)[C@@H]1CCCC1C(=O)Oc1ccc(Cl)cc1C(=O)Nc1ccc([N+](=O)[O-])cc1Cl` (stereo partly drawn) [Compound 7b], in data set [1], the MIC50 is more than 1 µM; the MIC90 was more than 1 µM; the “activity” value is recorded as “devoid of activity”. For the same compound, in data set [2], the stability against hydrolysis entry was “much more stable against hydrolysis”.
On to `C#Cc1cccc(NC(=O)c2cc(Cl)ccc2O)c1` [Compound 3d], for which, in data set [1], the MIC50 was more than 1 µM and the MIC90 was more than 1 µM.
For the compound `Cc1cccc(NC(=O)c2cc(F)ccc2O)c1` [Compound 10a], in data set [1], the MIC50 was more than 1 µM; the MIC90 was more than 1 µM; the “activity” value is “inactive”.
Regarding `CN1CCN(C(=O)Oc2ccc(Cl)cc2C(=O)Nc2ccc([N+](=O)[O-])cc2Cl)CC1` [Compound 7d, 4-chloro-2-((2-chloro-4-nitrophenyl)carbamoyl)phenyl 4-methylpiperazine-1-carboxylate], the “activity” value in data set [1] was “devoid of activity”. The stability against hydrolysis entry in data set [2] was “much more stable against hydrolysis”.
For `Cc1cc(C)cc(NC(=O)c2cc(Cl)ccc2O)c1` [Compound 3s], in data set [1], the MIC50 was more than 1 µM and the MIC90 is more than 1 µM.
With `Nc1ccc(NC(=O)c2cc(Cl)ccc2O)c(Cl)c1` [Compound 5], in data set [1], the MIC50 is more than 1 µM; the MIC90 was more than 1 µM; the “activity” value is on record as “all activity was lost”.
